According to patent US9238666B2, “Phosphoramidic acid prodrugs of 5-[5-phenyl-4-(pyridin-2-ylmethylamino)quinazolin-2-yl] pyridine-3-sulfonamide” (BRISTOL-MYERS SQUIBB COMPANY, priority 2012, dated 2016):
In brackets after ≈: the same amount, converted by molar mass. Read-outs that look alike come from different tables or passages of the source.

Legend:
[1] = Solubility at different pH conditions (equilibrium, 24 h, HPLC); assay type: physicochemical
Procedure: Protocol for Solubility Studies of the Compounds of Instant Disclosure The solubility of the compounds of the present invention have been evaluated at various pH levels. The solubility was tested using the procedure described below. Excess amount of powder compound was equilibrated with 1 mL of buffer in a 2 mL glass vial and the dispersion of the compound in buffer ensured by vortexing, followed by sonication. The vials were shaken at 300 rpm at room temperature for 24 h. After 24 h incubation, the slurry was filtered and the filtrate analyzed by HPLC for the quantification of the solubilized fraction of compound using a four point calibration curve. Note: The incubation time was decided based on the aqueous stability data. If the compound was stable in the buffer up to 24 hrs, then the solubility was measured after 24 hrs, otherwise kinetic solubility data is reported. The solubility data at different pH conditions at 24 h (mg/mL) is provided in below Table 1.

[2] = molecular target: Kv1.5 channel of voltage-gated K+ channels (Homo sapiens, UniProt P22460); assay: Kv1.5 channel inhibition; assay type: cell-based
Text: Assays to determine the degree of activity of a compound as an IKur inhibitor are well known in the art and are described in references such as J. Gen. Physiol., 101(4):513-543 (April 1993), and Br. J. Pharmacol., 115(2):267-274 (May 1995).
By displaying activity as inhibitors of the Kv1.5 channel of voltage-gated K+ channels, compounds of the present disclosure are expected to be useful in the treatment of human diseases associated with the Kv1.5 channel.

[3] = buffer, pH 1, aqueous buffer, thermodynamic from solid, pH 1, room temperature, read-out: Solubility at 24 h
[4] = buffer, pH 2, aqueous buffer, thermodynamic from solid, pH 2, room temperature, read-out: Solubility at 24 h
[5] = buffer, pH 3, aqueous buffer, thermodynamic from solid, pH 3, room temperature, read-out: Solubility at 24 h
[6] = buffer, pH 5, aqueous buffer, thermodynamic from solid, pH 5, room temperature, read-out: Solubility at 24 h
[7] = buffer, pH 6.5, aqueous buffer, thermodynamic from solid, pH 6.5, room temperature, read-out: Solubility at 24 h
[8] = buffer, pH 7.4, aqueous buffer, thermodynamic from solid, pH 7.4, room temperature, read-out: Solubility at 24 h

Chain of Kv1.5 channel of voltage-gated K+ channels (P22460 whole entry): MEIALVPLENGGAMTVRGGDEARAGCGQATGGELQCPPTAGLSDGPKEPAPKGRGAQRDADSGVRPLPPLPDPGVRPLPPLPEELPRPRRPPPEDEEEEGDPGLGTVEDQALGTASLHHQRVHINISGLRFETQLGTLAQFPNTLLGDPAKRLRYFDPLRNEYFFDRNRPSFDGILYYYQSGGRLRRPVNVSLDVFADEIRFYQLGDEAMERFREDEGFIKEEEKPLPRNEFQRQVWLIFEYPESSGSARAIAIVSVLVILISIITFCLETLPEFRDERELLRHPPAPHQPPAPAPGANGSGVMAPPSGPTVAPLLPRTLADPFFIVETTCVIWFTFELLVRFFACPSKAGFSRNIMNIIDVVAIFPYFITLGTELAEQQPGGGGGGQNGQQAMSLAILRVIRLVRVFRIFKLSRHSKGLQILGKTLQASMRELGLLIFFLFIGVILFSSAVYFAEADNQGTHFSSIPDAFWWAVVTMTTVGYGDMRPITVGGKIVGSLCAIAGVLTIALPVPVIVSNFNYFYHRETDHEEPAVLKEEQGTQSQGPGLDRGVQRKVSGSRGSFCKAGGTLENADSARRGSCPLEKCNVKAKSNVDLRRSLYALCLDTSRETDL

## O=P(O)(O)NS(=O)(=O)c1cncc(-c2nc(NCc3ccccn3)c3c(-c4ccccc4)cccc3n2)c1 [Compound 5, Tris-(5-(5-phenyl-4-((pyridin-2-ylmethyl)amino)quinazolin-2-yl)pyridin-3-yl)sulfonylphosphoramidate]
[1]; pH 1, room temperature
  Solubility at 24 h: 1.62 mg/mL (≈ 2950 µM)
[1]; pH 2, room temperature
  Solubility at 24 h: 0.08 mg/mL (≈ 146 µM)
[1]; pH 3, room temperature
  Solubility at 24 h: 0.03 mg/mL (≈ 54.7 µM)
[1]; pH 5, room temperature
  Solubility at 24 h: 0.022 mg/mL (≈ 40.1 µM)
[1]; pH 6.5, room temperature
  Solubility at 24 h: 2.023 mg/mL (≈ 3690 µM)
[1]; pH 7.4, room temperature
  Solubility at 24 h: 2.514 mg/mL (≈ 4580 µM)

## O=P(O)(O)NS(=O)(=O)c1cncc(-c2nc(NCc3ccccn3)c3c(-c4ccccc4)cccc3n2)c1 [Compound 7, Calcium (5-(5-phenyl-4-((pyridin-2-ylmethyl)amino)quinazolin-2-yl)pyridin-3-yl)sulfonylphosphoramidate]
[1]; pH 1, room temperature
  Solubility at 24 h: 0.99 mg/mL
[1]; pH 2, room temperature
  Solubility at 24 h: 0.12 mg/mL
[1]; pH 3, room temperature
  Solubility at 24 h: 0.02 mg/mL
[1]; pH 5, room temperature
  Solubility at 24 h: 0.07 mg/mL
[1]; pH 6.5, room temperature
  Solubility at 24 h: 1.15 mg/mL
[1]; pH 7.4, room temperature
  Solubility at 24 h: 2.41 mg/mL

## NS(=O)(=O)c1cncc(-c2nc(NCc3ccccn3)c3c(-c4ccccc4)cccc3n2)c1 [Compound 1, 5-(5-phenyl-4-((pyridin-2-ylmethyl)amino)quinazolin-2-yl)pyridine-3-sulfonamide, reference compound]
[1]; [3]
  Solubility at 24 h: 6.4 mg/mL (≈ 13700 µM)
[1]; [4]
  Solubility at 24 h: 0.41 mg/mL (≈ 875 µM)
[1]; [5]
  Solubility at 24 h: < 0.001 mg/mL
[1]; [6]
  Solubility at 24 h: < 0.001 mg/mL
[1]; [7]
  Solubility at 24 h: < 0.001 mg/mL
[1]; [8]
  Solubility at 24 h: < 0.001 mg/mL
[2]
  IC50: 46 nM

## O=P(O)(O)N(P(=O)(O)O)S(=O)(=O)c1cncc(-c2nc(NCc3ccccn3)c3c(-c4ccccc4)cccc3n2)c1 [Compound 10]
[1]; [3]
  Solubility at 24 h: > 1.74 mg/mL
[1]; [4]
  Solubility at 24 h: > 4.05 mg/mL
[1]; [5]
  Solubility at 24 h: > 2.11 mg/mL
[1]; [6]
  Solubility at 24 h: > 5.12 mg/mL
[1]; [7]
  Solubility at 24 h: > 4.58 mg/mL
[1]; [8]
  Solubility at 24 h: > 1.99 mg/mL

## O=P(O)(O)NS(=O)(=O)c1cncc(-c2nc(NCc3ccccn3)c3c(-c4ccccc4)cccc3n2)c1 [Compound 3, Trisodium (5-(5-phenyl-4-((pyridin-2-ylmethyl)amino)quinazolin-2-yl)pyridin-3-yl)sulfonylphosphoramidate]
[1]; pH 1, room temperature
  Solubility at 24 h: 0.75 mg/mL
[1]; pH 2, room temperature
  Solubility at 24 h: 0.11 mg/mL
[1]; pH 3, room temperature
  Solubility at 24 h: 0.02 mg/mL
[1]; pH 5, room temperature
  Solubility at 24 h: 0.15 mg/mL
[1]; pH 6.5, room temperature
  Solubility at 24 h: 4.62 mg/mL
[1]; pH 7.4, room temperature
  Solubility at 24 h: 7.3 mg/mL

## O=P(O)(O)NS(=O)(=O)c1cncc(-c2nc(NCc3ccccn3)c3c(-c4ccccc4)cccc3n2)c1 [Compound 8, Magnesium (5-(5-phenyl-4-((pyridin-2-ylmethyl)amino)quinazolin-2-yl)pyridin-3-yl)sulfonylphosphoramidate]
[1]; pH 1, room temperature
  Solubility at 24 h: 0.6 mg/mL (≈ 1090 µM)
[1]; pH 2, room temperature
  Solubility at 24 h: 0.02 mg/mL (≈ 36.5 µM)
[1]; pH 3, room temperature
  Solubility at 24 h: 0.02 mg/mL (≈ 36.5 µM)
[1]; pH 5, room temperature
  Solubility at 24 h: 0.03 mg/mL (≈ 54.7 µM)
[1]; pH 6.5, room temperature
  Solubility at 24 h: 0.16 mg/mL (≈ 292 µM)
[1]; pH 7.4, room temperature
  Solubility at 24 h: 0.19 mg/mL (≈ 346 µM)

## O=P(O)(O)NS(=O)(=O)c1cncc(-c2nc(NCc3ccccn3)c3c(-c4ccccc4)cccc3n2)c1 [Compound 6, Tripotassium (5-(5-phenyl-4-((pyridin-2-ylmethyl)amino)quinazolin-2-yl)pyridin-3-yl)sulfonylphosphoramidate]
[1]; pH 1, room temperature
  Solubility at 24 h: 0.29 mg/mL
[1]; pH 2, room temperature
  Solubility at 24 h: 0.09 mg/mL
[1]; pH 3, room temperature
  Solubility at 24 h: 0.07 mg/mL
[1]; pH 5, room temperature
  Solubility at 24 h: 0.25 mg/mL
[1]; pH 6.5, room temperature
  Solubility at 24 h: 0.3 mg/mL
[1]; pH 7.4, room temperature
  Solubility at 24 h: >1.07 mg/mL

## O=P(O)(O)NS(=O)(=O)c1cncc(-c2nc(NCc3ccccn3)c3c(-c4ccccc4)cccc3n2)c1 [Compound 2, 5-(5-Phenyl-4-(pyridin-2-ylmethylamino)quinazolin-2-yl)pyridin-3-ylsulfonylphosphoramidic acid]
[1]; pH 1, room temperature
  Solubility at 24 h: 0.25 mg/mL (≈ 456 µM)
[1]; pH 2, room temperature
  Solubility at 24 h: 0.03 mg/mL (≈ 54.7 µM)
[1]; pH 3, room temperature
  Solubility at 24 h: 0.01 mg/mL (≈ 18.2 µM)
[1]; pH 5, room temperature
  Solubility at 24 h: 0.002 mg/mL (≈ 3.65 µM)
[1]; pH 6.5, room temperature
  Solubility at 24 h: 0.11 mg/mL (≈ 201 µM)
[1]; pH 7.4, room temperature
  Solubility at 24 h: 0.56 mg/mL (≈ 1020 µM)
